Consider 2 compounds from patent publication US20240279338A1, “Combination Treatment of Cancer” (Ares Trading S.A., priority 2021, published 2024).

The subject of assay [1] is human T cells co-cultured with MDA-MB-231 tumor cells. As to the kind of experiment: Rescue of IFNγ secretion from EBV-specific human T cells co-cultured with MDA-MB-231 tumor cells in presence of NECA. As to conditions: Compound A 100 nM; bintrafusp alfa 1 μg/ml; 10 μM NECA; 74 hours of co-culture; T cells:tumor cells 0.5:1; ELISA. The assay is classed as cell-based. Here is the method:
Then 10 μM NECA was added to the corresponding groups and 1.3×10^4 of T cells in 100 μl volume were transferred per well of 96-well flat bottom plate with 2.6×10^4 cells/well of MDA-MB-231 tumor cells pre-loaded with EBV peptide (30 ng/ml, […], 21st Century) in 100 μl of RPM11640 media, supplemented with 10% FBS. The final ratio for T cells:MDA-MB-231 tumor cells=0.5:1. Cell culture supernatants were collected after 74 hours of co-culture, and IFNγ levels were measured using human IFNγ ELISA Kit (R&D Systems) according to manufacturer instructions. The percentage of IFNγ secretion rescue was calculated using following formula: 100%−(IFNγ in samples treated with NECA and Compound A alone or combination with bintrafusp alfa minus IFNγ in control sample)[…](IFNγ in samples with NECA minus IFNγ in control sample)*100%. Representative graph with the results shown as average of three samples per treatment group±SEM. P-values are calculated using one-way ANOVA Tukey comparison test. […]
Briefly, MDA-MB-231 tumor cells were seeded to the flat bottom 96-well plate at 2.6×10^4 cells/well (in 100 μl of RPMI1640 media, supplemented with 10% FBS) and loaded with EBV peptide (30 ng/ml, […], 21st Century). […] Cell culture supernatants were collected after 74 hours of co-culture, and IFNγ levels were measured using human IFNγ ELISA Kit (R&D Systems) according to manufacturer instructions. […]

For the next assay, the system named is E0771 cells. Description: CD73hi E0771 syngeneic tumor model, tumor growth. As to conditions: for tumor growth inhibition, T/C: E0771, female C57BL/6 mice, Day 18 post treatment initiation. It counts as in vivo, mice. Here is the method:
Female C57BL/6 mice were inoculated with 1.5×10^5 E0771 cells into the right mammary fat pad and were treated with Compound A (300 mg/kg po, BID), bintrafusp alfa (8.2 mg/kg iv, days 0, 3, 6), Compound A+bintrafusp alfa, when average tumor volume reached approximately 75 mm^3. Vehicle (po, BID) and isotype control antibody injections (6.65 mg/kg iv, days 0, 3, 6) were used as controls. (A) Average tumor volumes with SEM, and (B) individual tumor volumes are presented. Tumor volume data were analyzed using two-way ANOVA followed by Tukey's multiple comparison test.
To determine whether combined treatment with the dual A2A/A2B receptor inhibitor “Compound A” ((S)-7-Oxa-2-aza-spiro[4.5]decane-2-carboxylic acid [7-(3,6-dihydro-2H-pyran-4-yl)-4-methoxy-thiazolo[4,5-c]pyridin-2-yl]-amide) and bintrafusp alfa can inhibit tumor growth in either CD73^hi or CD73^low models, tumor growth was monitored in […] syngeneic tumor models. Animals were inoculated with either CD73^hi tumor cells (4T1, E0771, or EMT6) or with CD73^low MC38, H22 or MBT2 tumor cells. For all tumor models, animals were treated with either 1) vehicle and isotype, 2) Compound A and isotype, 3) vehicle and bintrafusp alfa, or 4) Compound A and bintrafusp alfa.
In the third CD73^hi tumor model, female C57BL/6 mice were inoculated with 1.5×10^5 E0771 cells into the right mammary fat pad and were randomized into treatment groups when average tumor volume reached approximately 75 mm^3. […] Thus, to test its combination potential with Compound A in this model we had to reduce the dose for bintrafusp alfa from 24 mg/kg (iv, days 0, 3, and 6) down to 8.2 mg/kg (iv, days 0, 3, 6). Thus, E0771 tumor-bearing mice were treated with Compound A (300 mg/kg po, BID), bintrafusp alfa (8.2 mg/kg iv, days 0, 3, 6), Compound A+bintrafusp alfa starting the day 0 (when they were randomized into treatment groups). Vehicle (po, BID) and isotype control antibody injections (6.65 mg/kg iv, days 0, 3, 6) were used as controls.

The next assay concerns ADORA2B (A2B). Description: RNAseq gene expression in 4T1 tumors. As to conditions: CD73hi 4T1 tumors; bintrafusp alfa 24.6 mg/kg iv; Day 6 post treatment; vs isotype. It counts as in vivo, mice. Here is the method: (§1) FIG. 4: Bintrafusp alfa increases expression of A2B in CD73h adenosine-rich 4T1 tumor model, but not in CD73^low adenosine-low MC38 tumor model. For the 4T1 tumor model, female BALB/c mice were inoculated with 2×10^5 4T1 cells into the right mammary fat pad. For the MC38 tumor model, female C57BL/6 mice were inoculated subcutaneously in the right flank with MC38 cells (1×10^6). Animals in both studies were randomized into the groups and treatments started when the average tumor size reached approximately 100-150 mm^3. For both models, there were 15 mice in each group. The animals were treated with isotype control (20 mg/kg, iv) or bintrafusp alfa (24.6 mg/kg, iv) on days 0, 1, and 2. Tumors were harvested on Day 6 post treatment start, flash frozen, and used for RNASeq analysis. Gene expression levels of (A) NT5E, (B) ADORA2A (A2A), and (C) ADORA2B (A2B) are presented as mean±SEM. P-values were calculated using two-way ANOVA.
(§2) To determine whether bintrafusp alfa treatment modulates expression of A2A or A2B receptors or NT5E (gene encoding CD73), mice with established 4T1 and MC38 tumors were treated with 20 mg/kg isotype antibody or 24.6 mg/kg bintrafusp alfa.

For a further assay, the system named is NT5E (CD73). As to the kind of experiment: RNAseq gene expression in 4T1 tumors. It counts as in vivo, mice. The following applies: bintrafusp alfa 24.6 mg/kg iv, Day 6 post treatment, vs isotype. Here is the method:
as §1, §2

For a further assay, the system named is ADORA2A (A2A). As to the kind of experiment: RNAseq gene expression in 4T1 tumors. The assay is classed as in vivo, mice. The following applies: bintrafusp alfa 24.6 mg/kg iv, Day 6 post treatment, vs isotype. Here is the method:
as §1, §2

[2] abbreviates: Compound A 300 mg/kg po BID, bintrafusp alfa 8.2 mg/kg iv days 0, 3, 6.

As for “bintrafusp alfa: anti-PD-L1:TGFβRII fusion protein, CAS 1918149-01-5; human IgG1 antibody against PD-L1 fused to extracellular domain of human TGF-β receptor II”, the “rescue of IFNγ secretion” value in assay [1] is about 24%. In addition, in the assay on E0771 cells (setting [2]), the “tumor growth inhibition, T/C” value is 65.7%. In the assay with E0771 cells (E0771, bintrafusp alfa original dose 24.6 mg/kg iv days 0, 3, and 6), the “sensitivity of the tumor model” value is “high sensitivity”. Also, in the assay on ADORA2B (A2B), the “expression of A2B” value is on record as “increased”. In addition, in the assay with NT5E (CD73), the “expression of NT5E (CD73)” value was “no changes”. For the same compound, the “expression of A2A” value in the assay with ADORA2A (A2A) is listed as “no changes”.
As to `COc1ncc(C2=CCOCC2)c2sc(NC(=O)N3CC[C@@]4(CCCOC4)C3)nc12` [Compound A, (S)-7-Oxa-2-aza-spiro[4.5]decane-2-carboxylic acid [7-(3,6-dihydro-2H-pyran-4-yl)-4-methoxy-thiazolo[4,5-c]pyridin-2-yl]-amide], the “rescue of IFNγ secretion” value in assay [1] is recorded as “approx. 71%”. Also, the “tumor growth inhibition, T/C” value in the assay with E0771 cells (setting [2]) is 72.9%. Further, the “mice with CR (complete responses)” value with E0771 cells (E0771, Compound A 300 mg/kg po BID, bintrafusp alfa 8.2 mg/kg iv days 0, 3, 6) came to 1.
